The numbers were not newly measured in US11033512B2, “Transdermal therapeutic system containing asenapine and silicone acrylic hybrid polymer” (LTS LOHMANN Therapie-Systeme AG, priority 2017, dated 2021), which cites them from elsewhere.

The target of series [1] is serotonin 5-HT2A receptors (Homo sapiens, UniProt P28223).
Chain of serotonin 5-HT2A receptors (P28223 whole entry): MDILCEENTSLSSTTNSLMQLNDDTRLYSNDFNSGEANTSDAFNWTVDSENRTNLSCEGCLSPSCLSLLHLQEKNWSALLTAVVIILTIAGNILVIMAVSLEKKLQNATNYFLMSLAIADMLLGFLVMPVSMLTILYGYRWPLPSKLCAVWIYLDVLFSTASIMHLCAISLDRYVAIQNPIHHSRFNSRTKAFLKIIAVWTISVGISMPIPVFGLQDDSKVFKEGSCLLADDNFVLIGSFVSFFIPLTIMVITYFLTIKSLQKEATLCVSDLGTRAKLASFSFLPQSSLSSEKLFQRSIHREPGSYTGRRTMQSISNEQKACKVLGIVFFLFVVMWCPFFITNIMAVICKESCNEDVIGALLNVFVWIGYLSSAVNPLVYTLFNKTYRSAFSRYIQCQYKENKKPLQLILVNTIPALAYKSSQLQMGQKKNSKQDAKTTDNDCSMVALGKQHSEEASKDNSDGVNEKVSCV

Take `CN1C[C@H]2c3ccccc3Oc3ccc(Cl)cc3[C@@H]2C1` (relative stereo) [asenapine, (3aRS,12bRS)-rel-5-chloro-2,3,3a,12b-tetrahydro-2-methyl-1H-dibenz[2,3:6,7]oxepino[4,5-c]pyrrole]: the “time of peak blood plasma concentrations” value (following sublingual administration) is 0.5 to 1.5 h. Further, the terminal disposition half-life (following sublingual administration, therapeutic doses) was at least 24 h. Besides, the bioavailability (if ingested) is listed as under 2%. Also, the affinity result in series [1] was “high affinity”.

As a reminder, the bioavailability is dose-corrected exposure relative to a reference, in per cent.
